Experimental data reported in patent publication US8273771B2, “Ischemic disorder or disease inhibitors” (Pronas Pharma AB, priority 2007, dated 2012).

Columns and labels:
[1] = system: rats with induced SAH; test: Neurological scoring in rat subarachnoid hemorrhage model; assay type: in vivo; details: established scoring system, SAH+vehicle score 1, sham score 0
Text: Subarachnoid hemorrhage was induced by a model originally devised by Svendgaard et al and carefully described by Prunell et al (2003). Male Sprague-Dawley rats (350-400 g) were anaesthetized using 5% halothane (Halocarbon Laboratories, River Edge, N.J.) in N2O/O2 (30:70). The rat was intubated and artificially ventilated with inhalation of 0.5-1.5% halothane in N2O/O2 (70:30) during the surgical procedure. The depth of anaesthesia was carefully monitored and the respiration checked by regularly withdrawing arterial blood samples for blood gas analysis (Radiometer, Copenhagen, Denmark). An electric temperature probe was inserted into the rectum of the rat to record the temperature, which was maintained at 37° C. An arterial catheter to measure blood pressure was placed in the tail artery and a catheter to monitor intracranial pressure (ICP) was placed in the subarachnoid space under the subocciptal membrane. At either side of the skull, 3 mm from the midline and 4 mm anteriorly from the bregma, holes were drilled through the skull bone down to dura mater (without perforation) allowing the placement of two laser-Doppler flow probes to measure cortical CBF. […]
During the period, the rat was monitored regularly, and if showing severe distress the animal was prematurely killed. […]

[2] = system: rats with induced SAH; test: Autoradiographic measurements of regional and global CBF after SAH; assay type: in vivo, rat; details: for reduction in regional CBF (rCBF) after SAH: 18 brain regions
Method: In addition they were treated with 20-50 μl; 10^-6 M of SB386023-b (a kind gift from Dr A A Parsons, GSK, UK) or the same volume of vehicle repeatedly 6, 12, 24 and 36 h after the induced SAH. This dose was based on a previous in vivo study with SAH.
In addition, they were treated with the PKC inhibitor RO-31-7549 (Calbiochem, Sweden) or vehicle in conjunction with the operation and after the induced SAH. All animals treated with RO-31-7549 received […] injections intracisternally of RO-31-7549 or vehicle in similar volume. Thus, 20 to 50 μl 10-^6 mol/L of RO-31-7549 was injected intracisternally at 30 mins before the induced SAH and after the SAH 20 μl 10-^6 mol/L of RO-31-7549 was administered repeatedly after 3, 6, 12, 24 and 32 h from the first RO-31-7549 injection. This dose was chosen on the basis of previous detailed work on isolated cerebral arteries (Hansen-Schwartz et al, 2002), the dose was chosen at near maximum inhibition and calculation of cerebrospinal fluid volume/turnover.
Regional and global cerebral blood flow was measured by a model originally described by Sakurada et al., (1978) and modified by Gjedde et al., (1980). In brief, after 48 hours of observation rats in the various groups (sham, SAH+vehicle and SAH treated with the raf inhibitor) were anaesthetized using 5% halothane in N2O/O2 (30:70). The animal was intubated and artificially ventilated with inhalation of 0.5-1.5% halothane in N2O/O2 (70:30) during the surgical procedure. The anaesthesia and the respiration were monitored by regularly withdrawing arterial blood samples for blood gas analysis (Radiometer AS, Denmark). A catheter to measure MABP was placed in the right femoral artery and a catheter for blood sampling was placed in the left femoral artery. This catheter was connected to a constant velocity withdrawal pump (Harvard apparatus 22, USA) for mechanical integration of tracer concentration. In addition, a catheter was inserted in one femoral vein for injection of heparin and for infusion of the radioactive tracer. The MABP was continuously monitored with a Powerlab Unit (ADInstruments, UK). A temperature probe was inserted into the rectum of the rat to record the temperature, which was regularly maintained at 37° C. The hematocrit was measured by a hematocrit centrifuge (Beckman Microfuge 11, USA). After 30 minutes of equilibration a bolus injection of 50 uCi of 14Ciodoantipyrine 4[N-methyl-14C] (Perkin-Elmer, Boston, USA) was given i.v. Arterial blood (122 μl) was withdrawn over 20 seconds. Immediately after this the animal was decapitated, the brain removed and immersed in isopentane (J. T. Baker, Deventer, Netherlands) chilled to −50° C. The arterial blood sample was transferred to liquid scintillation counting vials containing 1 ml mixture of Soluene-350 (Perkin-Elmer, Boston, USA) and Isopropanol (J. T. Baker, Deventer, Netherlands) (1:1). After 2 hours at 60° C., 0.2 ml of 30% hydrogen peroxide was added to the vials, and the samples were maintained at room temperature for 15-30 minutes. Thereafter the samples were kept at 60° C. for 30 minutes and 10-15 ml Hionic-Fluor (Perkin-Elmer, Foster, Calif., USA) was added. The β-radioactivity scintillation counting was performed on the samples with a program that included quench correction (Packard 2000 CA, Denmark). The 14C activity in the tissue was determined after sectioning the brain in 20 μm sections at −20° C. in a cryostat (Wild Leitz A/S, Glostrup, Denmark). The sections were exposed to x-ray films (Kodak, Denmark) together with 14C methylmethacrylate standards (Amersham Life Science, England) and exposed the films for 20 days. Densities of the autoradiograms were measured with a Macintosh computer equipped with an analog CF 4/1 camera (Kaiser, Germany) and a transparency flat viewer (Color-Control 5000, Weilheim, Germany). The 14C content was determined in several brain regions (see Table 2). […]

[3] = system: rats with induced SAH; test: Physiological parameters in operated SAH rats; assay type: in vivo, rat; details: sham, SAH+vehicle and treated SAH groups
Text: Subarachnoid hemorrhage was induced by a model originally devised by Svendgaard et al and carefully described by Prunell et al (2003). Male Sprague-Dawley rats (350-400 g) were anaesthetized using 5% halothane (Halocarbon Laboratories, River Edge, N.J.) in N2O/O2 (30:70). The rat was intubated and artificially ventilated with inhalation of 0.5-1.5% halothane in N2O/O2 (70:30) during the surgical procedure. The depth of anaesthesia was carefully monitored and the respiration checked by regularly withdrawing arterial blood samples for blood gas analysis (Radiometer, Copenhagen, Denmark). An electric temperature probe was inserted into the rectum of the rat to record the temperature, which was maintained at 37° C. An arterial catheter to measure blood pressure was placed in the tail artery and a catheter to monitor intracranial pressure (ICP) was placed in the subarachnoid space under the subocciptal membrane. At either side of the skull, 3 mm from the midline and 4 mm anteriorly from the bregma, holes were drilled through the skull bone down to dura mater (without perforation) allowing the placement of two laser-Doppler flow probes to measure cortical CBF. Finally, a 27G blunt canula with side hole was introduced 6.5 mm anterior to bregma in the midline at an angle of 30° to the vertical. With the aperture pointing to the right, the needle was lowered until the tip reached the skull base 2 to […] anterior to the chiasma. After 30 minutes of equilibration 250 μl blood was withdrawn from the tail catheter and injected intracranially via this canula at a pressure equal to the mean arterial blood pressure (MABP) (80-100 mmHg). Subsequently the rat was kept under anaesthesia for another 60 minutes to allow recovery from the cerebral insult after which catheters were removed and incisions closed. The rat was then revitalized and extubated. A subcutaneous injection of carprofen (4.0 mg/kg) (Pfizer, Denmark) was administered and the rat was hydrated subcutaneously using […] isotonic sodium chloride at the end of the operation and at day one.

[4] = intracisternal injections from 30 min before SAH and repeatedly after

Row | SMILES | neurological score [1] | global reduction in CBF after SAH [2, 4] | reduction in regional CBF (rCBF) after SAH [2, 4] | physiological parameters (MABP, pCO2, pO2, hematocrit, temperature), difference between groups [3] | global cerebral blood flow ([2]; measured at 48 h, treatment 6 h after the SAH, control 140±6, SAH 63±2) [ml/100 g/min] | reduction in regional CBF (rCBF) after SAH ([2]; treatment at 6 h after SAH) | reduction in regional CBF (rCBF) after SAH ([2]; treatment at 0 h / in conjunction with the SAH)
1 | Cn1cc(C2=C(c3cn(CCCN)c4ccccc34)C(=O)NC2=O)c2ccccc21 [RO-31-7549] | 0 | prevented the marked reduction in CBF | prevented this reduction in rCBF | No statistical difference | – | – | –
2 | Oc1cc(-c2nc(-c3ccccc3)[nH]c2-c2ccncc2)ccc1Cl [SB386023-b] | 0 | – | – | No statistical difference | 128±4 | prevented this reduction in rCBF | –
3 | N#CC(=C(/N)Sc1ccccc1N)/C(C#N)=C(\N)Sc1ccccc1N [U0126] | – | – | – | No statistical difference | – | prevented this reduction in rCBF | prevented this reduction in rCBF
